Earlier results in patent US20250114344A1, “COMBINATORIAL PHARMACOTHERAPY FOR THE RESTORATION OF NEURO-FUNCTION AND COMBINATORIAL PHARMACOLOGICAL COMPOSITION THEREFORE” (Neuro-Innovators, LLC., priority 2022, published 2025).

Experiments:
CYP3A4 = CYP3A4 (Homo sapiens, UniProt P08684)
[1] = compared with aspirin; fewer hemorrhagic events
MANF (a form of BDNF) = conditions: Prefrontal Cortex and Striatum, compared to controls

Sequence of CYP3A4 (P08684 whole entry, species assumed): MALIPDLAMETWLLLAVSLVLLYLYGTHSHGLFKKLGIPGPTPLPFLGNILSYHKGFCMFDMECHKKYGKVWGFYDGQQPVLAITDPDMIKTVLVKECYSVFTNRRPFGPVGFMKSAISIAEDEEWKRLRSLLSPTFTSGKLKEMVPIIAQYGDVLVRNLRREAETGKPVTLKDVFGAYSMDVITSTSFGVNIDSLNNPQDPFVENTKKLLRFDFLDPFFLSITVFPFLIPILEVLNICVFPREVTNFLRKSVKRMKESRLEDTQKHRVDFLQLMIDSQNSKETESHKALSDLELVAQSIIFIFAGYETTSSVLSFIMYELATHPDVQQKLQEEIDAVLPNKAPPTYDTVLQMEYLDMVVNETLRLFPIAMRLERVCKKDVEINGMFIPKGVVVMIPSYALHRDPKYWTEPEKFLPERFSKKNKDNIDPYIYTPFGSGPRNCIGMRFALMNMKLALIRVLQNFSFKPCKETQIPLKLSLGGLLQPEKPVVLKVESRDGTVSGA

SMILES	interaction with CYP3A4 (CYP3A4)	incidence of recurrent stroke [1]	MANF expression (MANF (a form of BDNF))
O=C1CCc2cc(OCCCCc3nnnn3C3CCCCC3)ccc2N1 [Cilostazol]	substrate for CYP3A4	significantly reduce the incidence of recurrent stroke	
O=C([O-])[O-].[Li+].[Li+] [lithium, Lithium Carbonate]			significant increase
